# Laboratory results: patent US20240140944A1, “NOVEL NAPHTHYRIDINONE DERIVATIVE HAVING INHIBITORY ACTIVITY AGAINST ECTONUCLEOTIDE PYROPHOSPHATASE-PHOSPHODIESTERASE AND USE THEREOF” (TXINNO BIOSCIENCE INC., priority 2020, published 2024)
# Where a name gives a salt, the structure may show the parent alone.
# Target: T1, human recombinant ENPP1 enzymes (Homo sapiens, UniProt P22413)
# T1 construct: purchased R & D systems
# T1 sequence (P22413 1-925): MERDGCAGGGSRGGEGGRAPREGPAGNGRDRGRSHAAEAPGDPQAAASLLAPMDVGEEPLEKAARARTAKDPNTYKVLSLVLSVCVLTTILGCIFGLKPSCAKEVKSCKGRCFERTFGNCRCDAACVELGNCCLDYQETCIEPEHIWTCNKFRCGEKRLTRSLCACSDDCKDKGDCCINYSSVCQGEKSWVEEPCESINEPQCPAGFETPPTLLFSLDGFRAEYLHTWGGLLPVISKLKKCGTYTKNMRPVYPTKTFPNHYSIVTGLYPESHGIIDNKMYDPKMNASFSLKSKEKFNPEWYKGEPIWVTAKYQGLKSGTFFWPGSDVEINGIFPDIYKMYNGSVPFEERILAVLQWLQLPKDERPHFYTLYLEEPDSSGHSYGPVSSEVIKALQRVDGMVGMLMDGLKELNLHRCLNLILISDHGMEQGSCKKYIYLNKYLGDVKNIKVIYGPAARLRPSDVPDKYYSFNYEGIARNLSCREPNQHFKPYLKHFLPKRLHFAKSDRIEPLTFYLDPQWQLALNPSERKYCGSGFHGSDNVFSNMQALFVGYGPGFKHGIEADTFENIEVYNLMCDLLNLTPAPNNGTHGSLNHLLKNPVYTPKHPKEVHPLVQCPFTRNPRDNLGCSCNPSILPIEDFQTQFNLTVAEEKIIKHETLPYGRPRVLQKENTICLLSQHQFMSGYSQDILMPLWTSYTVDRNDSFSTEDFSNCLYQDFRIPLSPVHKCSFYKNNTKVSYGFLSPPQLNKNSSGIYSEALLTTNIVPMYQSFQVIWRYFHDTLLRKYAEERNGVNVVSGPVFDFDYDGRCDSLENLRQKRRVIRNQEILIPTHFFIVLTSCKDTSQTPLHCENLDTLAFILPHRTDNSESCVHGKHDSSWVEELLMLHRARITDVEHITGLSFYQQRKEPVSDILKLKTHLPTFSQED
# Assay: ENPP1 Enzyme Assay with cGAMP Substrate (AMP-Glo)
# Type: biochemical
# Details: human recombinant ENPP1 3 ng/reaction, cGAMP 5 μM, 37° C. 90 minutes, average of two or more tests; read-out: Enzymatic activity IC50
# Procedure: ENPP1 hydrolyzes nucleotides or nucleotide derivatives to produce nucleoside-5′-monophosphate and pyrophosphate. In addition, ENPP1 hydrolyzes 2′,3′-cGAMP to produce 5′-adenosine monophosphate (AMP) and 5′-guanosine monophosphate (GMP). AMP produced from the reaction is measured using the AMP-Glo® kit (Promega). The AMP-Glo® kit contains two reagents. The first reagent terminates the AMP-producing enzymatic reaction, removes ATP and converts the produced AMP into ADP. The second reagent converts ADP to ATP which is used to generate luminescence in the luciferase reaction. The amount of luminescence measured is proportional to the amount of AMP produced by ENPP1.
# The final reaction mixture contains 50 mM Tris (pH 8.5) buffer, 250 mM NaCl, 0.5 mM CaCl2), 1 μM ZnCl2, 5% glycerol and 1% DMSO. Serially diluted ENPP1 inhibitors (typically in the range of 10 μM to 0.5 nM) were pre-stored with human recombinant ENPP1 enzymes (R & D systems) at 3 ng/reaction and room temperature (RT) for 5 to 10 minutes. The reaction was initiated by addition of cGAMP (at a final concentration of 5 μM) and reacted at 37° C. for 90 minutes. At the end of the reaction, 10 μl of the AMP-Glo first reagent was added to stop the reaction and the result was stored at room temperature for 1 hour. After storage, 20 μl of an AMP detection solution (a mixture of AMP-Glo II reagent and Kinase-Glo at a ratio of 1:100) was added and stored at room temperature for 1 hour. Luminescence signals were measured using a Victor® plate reader (Perkin Elmer). The maximal activity control (containing enzymes and substrates in the presence of 1% DMSO; MAX) and the minimal activity control (containing substrates and 1% DMSO; MIN) were evaluated simultaneously. In each experiment, serially diluted reference ENPP1 inhibitors were tested as well. IC50, indicating % residual activity versus compound concentration was determined by fitting inhibition curves using the 3-parameter analysis of GraphPad Prism® software. Serially diluted samples of one compound were tested two or more times and an average IC50 of each compound was calculated.
row,Compound,IC50 [µM]
1,"C[C@H](NS(N)(=O)=O)c1ccc(-c2ccnc3[nH]c(=O)ccc23)cc1 [Example 47, (S)-(N-(1-(4-(7-oxo-7,8-dihydro-1,8-naphthyridin-4-yl)phenyl)ethyl)sulfamide hydrochloride]",< 1
2,"NS(=O)(=O)Nc1cccc(-c2ccnc3c2CCC(=O)N3)c1 [Example 139, N-(3-(7-oxo-5,6,7,8-tetrahydro-1,8-naphthyridin-4-yl)phenyl)sulfamide]",< 1
3,"CS(=O)(=O)NCc1cccc(-c2ccnc3c2CCC(=O)N3)c1 [Example 146, N-(3-(7-oxo-5,6,7,8-tetrahydro-1,8-naphthyridin-4-yl)benzyl)methanesulfonamide]",1 to 10
4,"CC(C)(N)c1ccc(-c2ccnc3c2CCC(=O)N3)cc1 [Example 134, 5-(4-(2-aminopropan-2-yl)phenyl)-3,4-dihydro-1,8-naphthyridin-2(1H)-one hydrochloride]",< 1
5,"CN(Cc1ccc(-c2ccnc3[nH]c(=O)ccc23)cc1)S(N)(=O)=O [Example 50, N-methyl-N-(4-(7-oxo-7,8-dihydro-1,8-naphthyridin-4-yl)benzyl)sulfamide hydrochloride]",< 1
6,"NS(=O)(=O)N1Cc2ccc(Nc3ccnc4[nH]c(=O)ccc34)cc2C1 [Example 101, 5-((7-oxo-7,8-dihydro-1,8-naphthyridin-4-yl)amino)isoindolin-2-yl)sulfamide dihydrochloride]",< 1
7,NS(=O)(=O)N1CCCN(c2ccnc3[nH]c(=O)ccc23)CC1 [Example 127],1 to 10
8,"Cn1c(=O)ccc2c(-c3ccc(CN)cc3)ccnc21 [Example 29, 5-(4-(aminomethyl)phenyl)-1-methyl-1,8-naphthyridin-2(1H)-one hydrochloride]",1 to 10
9,"CC(C)(N)c1ccc(-c2ccnc3[nH]c(=O)ccc23)cc1 [Example 16, 5-(4-(2-aminopropan-2-yl)phenyl)-1,8-naphthyridin-2(1H)-one hydrochloride]",1 to 10
10,"Nc1ccc(Nc2ccnc3[nH]c(=O)ccc23)cc1 [Example 81, 5-((4-aminophenyl)amino)-1,8-naphthyridin-2(1H)-one dihydrochloride]",< 1
11,"NS(=O)(=O)NCc1cc(F)c(-c2ccnc3[nH]c(=O)ccc23)c(F)c1 [Example 44, N-(3,5-difluoro-4-(7-oxo-7,8-dihydro-1,8-naphthyridin-4-yl)benzyl)sulfamide hydrochloride]",< 1
12,"Nc1cccc(-c2ccnc3c2CCC(=O)N3)c1 [Example 131, 5-(3-(aminophenyl)-3,4-dihydro-1,8-naphthyridin-2(1H)-one hydrochloride]",1 to 10
13,"NS(=O)(=O)NCC1CCN(c2ccnc3[nH]c(=O)ccc23)CC1 [Example 124, N-((1-(7-oxo-7,8-dihydro-1,8-naphthyridin-4-yl)piperidin-4-yl)methyl)sulfamide]",< 1
14,"NS(=O)(=O)Nc1cccc(Nc2ccnc3[nH]c(=O)ccc23)c1 [Example 88, N-(3-((7-oxo-7,8-dihydro-1,8-naphthyridin-4-yl)amino)phenyl)sulfamide dihydrochloride]",< 1
15,"NS(=O)(=O)NCc1cc(Nc2ccnc3[nH]c(=O)ccc23)ccc1F [Example 90, N-(2-fluoro-5((7-oxo-7,8-dihydro-1,8-naphthyridin-4-yl)amino)benzyl)sulfamide dihydrochloride]",< 1
16,"NS(=O)(=O)NCc1ccc(Nc2ccnc3[nH]c(=O)ccc23)c(Cl)c1 [Example 100, N-(3-chloro-4-((7-oxo-7,8-dihydro-1,8-naphthyridin-4-yl)amino)benzyl)sulfamide dihydrochloride]",1 to 10

row,Compound,IC50 [µM]
1,"C[C@@H](NS(N)(=O)=O)c1ccc(-c2ccnc3[nH]c(=O)ccc23)cc1 [Example 46, (R)-(N-(1-(4-(7-oxo-7,8-dihydro-1,8-naphthyridin-4-yl)phenyl)ethyl)sulfamide hydrochloride]",< 1
2,"C[C@H](c1ccc(-c2ccnc3[nH]c(=O)ccc23)cc1)N(C)S(N)(=O)=O [Example 59, (R)-(N-methyl-N-(1-(4-(7-oxo-7,8-dihydro-1,8-naphthyridin-4-yl)phenyl)ethyl)sulfamide hydrochloride]",< 1
3,"O=c1ccc2c(-c3ccc(CP(=O)(O)O)cc3)ccnc2[nH]1 [Example 75, (4-(7-oxo-7,8-dihydro-1,8-naphthyridin-4-yl)benzyl)phosphonic acid]",< 1
4,"NS(=O)(=O)N1CCc2ccc(Nc3ccnc4c3CCC(=O)N4)cc2C1 [Example 144, (7-(7-oxo-5,6,7,8-tetrahydro-1,8-naphthyridin-4-yl)amino)-3,4-dihydroisoquinoline-2(1H)-sulfamide hydrochloride]",< 1
5,"Cn1c(=O)ccc2c(N3CCC(CNS(N)(=O)=O)CC3)ccnc21 [Example 128, N-((1-(8-methyl-7-oxo-7,8-dihydro-1,8-naphthyridin-4-yl)piperidin-4-yl)methyl)sulfamide]",< 1
6,"C[C@@H](NS(N)(=O)=O)c1ccc(-c2ccnc3[nH]c(=O)ccc23)cc1F [Example 48, (R)-(N-(1-(2-fluoro-4-(7-oxo-7,8-dihydro-1,8-naphthyridin-4-yl)phenyl)ethyl)sulfamide hydrochloride]",< 1
7,"CCOP(=O)(O)Cc1ccc(-c2ccnc3[nH]c(=O)ccc23)cc1 [Example 74, ethylhydrogen(4-(7-oxo-7,8-dihydro-1,8-naphthyridin-4-yl)benzyl)phosphonate]",1 to 10
8,"NS(=O)(=O)Nc1ccc(-c2ccnc3[nH]c(=O)ccc23)cc1 [Example 39, N-(4-(7-oxo-7,8-dihydro-1,8-naphthyridin-4-yl)phenyl)sulfamide]",1 to 10
9,"NS(=O)(=O)N1CCc2cc(F)c(-c3ccnc4[nH]c(=O)ccc34)cc2C1 [Example 66, 6-fluoro-7-(7-oxo-7,8-dihydro-1,8-naphthyridin-4-yl)-3,4-dihydroisoquinoline-2(1H)-sulfamide hydrochloride]",< 1
10,"CC(C)(C)OC(=O)NCc1ccc(-c2ccnc3[nH]c(=O)ccc23)cc1 [Example 3, tert-butyl(4-(7-oxo-7,8-dihydro-1,8-naphthyridin-4-yl)benzyl)carbamate]",1 to 10
11,"NCC1CCN(c2ccnc3[nH]c(=O)ccc23)CC1 [Example 114, 5-(4-(aminomethyl)piperidin-1-yl)-1,8-naphthyridin-2(1H)-one hydrochloride]",< 1
12,"O=c1ccc2c(Nc3ccc4c(c3)CNC4)ccnc2[nH]1 [Example 84, dihydrochloride]",< 1
13,"NS(=O)(=O)NCc1ccc(Nc2ccnc3[nH]c(=O)ccc23)cc1 [Example 98, N-(4-((7-oxo-7,8-dihydro-1,8-naphthyridin-4-yl)amino)benzyl)sulfamide dihydrochloride]",1 to 10
14,"NS(=O)(=O)N1CCc2cc(Nc3ccnc4[nH]c(=O)ccc34)ccc2C1 [Example 104, dihydrochloride]",1 to 10
15,"O=c1ccc2c(N3CCC4(CCNC4)CC3)ccnc2[nH]1 [Example 117, 5-(2,8-diazaspiro[4,5]decan-8-yl)-1,8-naphthyridin-2(1H)-one hydrochloride]",1 to 10
16,"O=c1ccc2c(-c3ccc(CNS(=O)(=O)c4cccs4)cc3)ccnc2[nH]1 [Example 70, N-(4-(7-oxo-7,8-dihydro-1,8-naphthyridin-4-yl)benzyl)thiophene-2-sulfonamide]",< 1
